Earlier results on one compound are cited in patent US20090239285A1, “TANDEM REAPEAT DNA CONSTRUCTS PRODUCING PROTEINS THAT ATTACK PLANT PATHOGENIC VIRUSES, FUNGI, AND BACTERIA BY DISRUPTING TRANSCRIPTION FACTORS ESSENTIAL FOR REPLICATION THEREOF IN PLANTS” (priority 2008, published 2009).

The series has as its system rice blast fungus Magnaporthe grisea. Conditions: PA treated plants; doses in range 0.5 mg/mL; cited from earlier work.

Regarding `O=C(O)c1ccccn1` [Picolinic acid, 2-pyridine carboxylic acid], the “resistance against M. grisea” value is reported as “enhanced”.
